Experimental data published in patent US7605174B2, “Indane derivatives as modulators of ion channels” (Vertex Pharmaceuticals Incorporated, priority 2005, dated 2009).

target: T1, NaV1.3 (Homo sapiens, UniProt Q9NY46); experiment: not given; details: read-out: TTX IC50; cited from earlier work
Target sequence in this assay (Q9NY46 whole entry, looked up): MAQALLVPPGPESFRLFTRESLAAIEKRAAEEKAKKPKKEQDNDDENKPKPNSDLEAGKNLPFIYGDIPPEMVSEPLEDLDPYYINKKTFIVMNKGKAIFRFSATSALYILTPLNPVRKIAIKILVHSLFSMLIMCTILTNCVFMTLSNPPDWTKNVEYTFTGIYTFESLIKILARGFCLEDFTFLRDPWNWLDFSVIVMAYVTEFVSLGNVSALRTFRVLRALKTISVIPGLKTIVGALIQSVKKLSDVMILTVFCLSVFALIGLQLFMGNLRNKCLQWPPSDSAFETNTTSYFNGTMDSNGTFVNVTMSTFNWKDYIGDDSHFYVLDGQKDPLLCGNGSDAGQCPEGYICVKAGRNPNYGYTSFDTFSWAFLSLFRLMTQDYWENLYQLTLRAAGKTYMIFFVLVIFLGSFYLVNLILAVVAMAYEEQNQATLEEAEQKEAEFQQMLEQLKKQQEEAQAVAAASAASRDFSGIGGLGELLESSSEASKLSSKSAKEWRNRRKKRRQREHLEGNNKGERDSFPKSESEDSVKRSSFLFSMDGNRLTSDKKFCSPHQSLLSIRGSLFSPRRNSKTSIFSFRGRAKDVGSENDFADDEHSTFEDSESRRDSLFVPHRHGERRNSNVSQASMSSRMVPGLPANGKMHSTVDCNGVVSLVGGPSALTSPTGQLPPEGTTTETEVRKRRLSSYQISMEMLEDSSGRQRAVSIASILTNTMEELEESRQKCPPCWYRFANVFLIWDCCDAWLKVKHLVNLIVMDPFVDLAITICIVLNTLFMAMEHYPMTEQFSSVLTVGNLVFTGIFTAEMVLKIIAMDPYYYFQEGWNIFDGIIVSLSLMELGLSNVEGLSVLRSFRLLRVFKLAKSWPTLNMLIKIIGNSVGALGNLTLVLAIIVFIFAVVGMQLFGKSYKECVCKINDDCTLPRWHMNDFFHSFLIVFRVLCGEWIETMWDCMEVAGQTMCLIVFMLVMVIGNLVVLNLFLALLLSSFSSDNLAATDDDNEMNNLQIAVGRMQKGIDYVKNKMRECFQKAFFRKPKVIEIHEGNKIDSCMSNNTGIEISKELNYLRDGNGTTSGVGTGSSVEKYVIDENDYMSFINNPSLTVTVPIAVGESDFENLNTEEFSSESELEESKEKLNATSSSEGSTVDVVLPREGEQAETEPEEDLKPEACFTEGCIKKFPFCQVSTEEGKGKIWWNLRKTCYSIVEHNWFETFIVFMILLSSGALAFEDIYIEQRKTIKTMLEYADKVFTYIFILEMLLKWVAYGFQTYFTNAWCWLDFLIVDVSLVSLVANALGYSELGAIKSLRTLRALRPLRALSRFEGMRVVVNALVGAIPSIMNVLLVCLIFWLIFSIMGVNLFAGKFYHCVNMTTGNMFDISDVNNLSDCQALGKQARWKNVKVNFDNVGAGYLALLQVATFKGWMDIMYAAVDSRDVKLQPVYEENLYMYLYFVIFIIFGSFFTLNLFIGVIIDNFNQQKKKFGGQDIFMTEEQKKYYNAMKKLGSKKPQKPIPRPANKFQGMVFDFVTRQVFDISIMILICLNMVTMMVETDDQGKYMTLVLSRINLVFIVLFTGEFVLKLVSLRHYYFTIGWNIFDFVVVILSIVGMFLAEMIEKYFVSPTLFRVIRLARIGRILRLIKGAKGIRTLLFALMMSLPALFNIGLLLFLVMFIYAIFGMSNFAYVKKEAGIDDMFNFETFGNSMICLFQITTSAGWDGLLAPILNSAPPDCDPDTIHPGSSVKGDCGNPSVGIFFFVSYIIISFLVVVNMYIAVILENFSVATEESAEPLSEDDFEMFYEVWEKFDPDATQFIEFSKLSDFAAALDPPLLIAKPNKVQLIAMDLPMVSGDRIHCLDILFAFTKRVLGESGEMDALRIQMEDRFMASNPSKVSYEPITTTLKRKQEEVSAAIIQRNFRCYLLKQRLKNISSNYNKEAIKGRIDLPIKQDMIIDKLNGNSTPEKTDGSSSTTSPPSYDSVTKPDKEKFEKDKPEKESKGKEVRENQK

SMILES	IC50 [nM]
NC1=N[C@H](O)[C@H]2[C@H]3O[C@]4(O)O[C@@H]([C@@H](O)[C@@]2(N1)[C@@H]4O)[C@]3(O)CO [TTX, tetrodotoxin]	15

system: not given; experiment: not given; details: in vivo; cited from earlier work

SMILES	patients in whom the drug works [%]
NCC1(CC(=O)O)CCCCC1 [Gabapentin]	60

target: T1, NaV1.3; experiment: Activity against NaV 1.3 channel (optical membrane potential assay, electrical stimulation); format: cell-based; set-up: expressed in transfected cells; host or cells: HEK293; details: not given
Method: Compounds of the invention are useful as antagonists of voltage-gated sodium ion channels. Antagonist properties of test compounds were assessed as follows. Cells expressing the NaV of interest were placed into microtiter plates. After an incubation period, the cells were stained with fluorescent dyes sensitive to the transmembrane potential. The test compounds were added to the microtiter plate. The cells were stimulated with either a chemical or electrical means to evoke a NaV dependent membrane potential change from unblocked channels, which was detected and measured with trans-membrane potential-sensitive dyes. Antagonists were detected as a decreased membrane potential response to the stimulus. The optical membrane potential assay utilized voltage-sensitive FRET sensors described by Gonzalez and Tsien (See, Gonzalez, J. E. and R. Y. Tsien (1995) “Voltage sensing by fluorescence resonance energy transfer in single cells” Biophys J 69(4): 1272-80, and Gonzalez, J. E. and R. Y. Tsien (1997) “Improved indicators of cell membrane potential that use fluorescence resonance energy transfer” Chem Biol 4(4): 269-77) in combination with instrumentation for measuring fluorescence changes such as the Voltage/Ion Probe Reader (VIPR®) (See, Gonzalez, J. E., K. Oades, et al. (1999) “Cell-based assays and instrumentation for screening ion-channel targets” Drug Discov Today 4(9): 431-439).
The following is an example of how NaV1.3 inhibition activity is measured using the optical membrane potential method#2. Other subtypes are performed in an analogous mode in a cell line expressing the NaV of interest.
HEK293 cells stably expressing NaV1.3 are plated into 96-well microtiter plates. After an appropriate incubation period, the cells are stained with the voltage sensitive dyes CC2-DMPE/DiSBAC2(3) as follows.
2×CC2-DMPE=20 μM CC2-DMPE: 10 mM CC2-DMPE is vortexed with an equivalent volume of 10% pluronic, followed by vortexing in required amount of HBSS containing 10 mM HEPES. Each cell plate will require 5 mL of 2×CC2-DMPE. 50 μL of 2×CC2-DMPE is to wells containing washed cells, resulting in a 10 μM final staining concentration. The cells are stained for 30 minutes in the dark at RT.
2×DISBAC2(3) with ABSC1=6 μM DISBAC2(3) and 1 mM ABSC1: The required amount of 10 mM DISBAC2(3) is added to a 50 ml conical tube and mixed with 1 μL 10% pluronic for each mL of solution to be made and vortexed together. Then HBSS/HEPES is added to make up 2× solution. Finally, the ABSC1 is added.
The 2×DiSBAC2(3) solution can be used to solvate compound plates. Note that compound plates are made at 2× drug concentration. Wash stained plate again, leaving residual volume of 50 μL. Add 50 uL/well of the 2×DiSBAC2(3) w/ABSC1. Stain for 30 minutes in the dark at RT.
The electrical stimulation instrument and methods of use are described in ION Channel Assay Methods PCT/US01/21652, herein incorporated by reference. The instrument comprises a microtiter plate handler, an optical system for exciting the coumarin dye while simultaneously recording the coumarin and oxonol emissions, a waveform generator, a current- or voltage-controlled amplifier, and a device for inserting electrodes in well. Under integrated computer control, this instrument passes user-programmed electrical stimulus protocols to cells within the wells of the microtiter plate.
• 1. Insert or use electrodes into each well to be assayed. • 2. Use the current-controlled amplifier to deliver stimulation wave pulses for 3 s. Two seconds of pre-stimulus recording are performed to obtain the un-stimulated intensities. Five seconds of post-stimulation recording are performed to examine the relaxation to the resting state.
Data are analyzed and reported as normalized ratios of background-subtracted emission intensities measured in the 460 nm and 580 nm channels. Background intensities are then subtracted from each assay channel. […]
Target sequence in this assay (Q9NY46 whole entry): as the sequence (Q9NY46 whole entry, looked up) above

SMILES	IC50 [nM]
O=C(NC1Cc2ccc(S(=O)(=O)Nc3nccs3)cc2C1)Oc1cccc(C(F)(F)F)c1 (stereo not shown) [Compound 1]	< 2000
O=C(NC1Cc2ccc(S(=O)(=O)Nc3nccs3)cc2C1)Oc1ccc(Cl)cc1 (stereo not shown) [Compound 11]	< 2000

same assay, conditions: NaV 1.3 channel; read-out: IC50

SMILES	IC50 [nM]
O=C(COc1ccc(Cl)cc1)NC1Cc2ccc(S(=O)(=O)Nc3nccs3)cc2C1 (stereo not shown) [Compound 2]	< 2000
O=C(NC1Cc2ccc(S(=O)(=O)Nc3nccs3)cc2C1)c1cc(F)ccc1F (stereo not shown) [Compound 3]	> 5000
O=C(CCn1ccc2cc(Cl)ccc21)NC1Cc2ccc(S(=O)(=O)Nc3nccs3)cc2C1 (stereo not shown) [Compound 4, 3-(5-Chloro-indol-1-yl)-N-[5-(thiazol-2-ylsulfamoyl)-indan-2-yl]-propionamide]	< 2000
O=C(COc1ccc(F)c(Cl)c1)NC1Cc2ccc(S(=O)(=O)Nc3nccs3)cc2C1 (stereo not shown) [Compound 5]	< 2000
O=C(NC1Cc2ccc(S(=O)(=O)Nc3nccs3)cc2C1)c1ccc(F)cc1 (stereo not shown) [Compound 6, 4-Fluoro-N-[5-(thiazol-2-ylsulfamoyl)-indan-2-yl]-benzamide]	> 5000
O=C(NC1Cc2ccc(S(=O)(=O)Nc3nccs3)cc2C1)c1c(F)cc(F)cc1F (stereo not shown) [Compound 7]	> 5000
O=C(NC1Cc2ccc(S(=O)(=O)Nc3nccs3)cc2C1)c1ccc(Cl)c(Cl)c1 (stereo not shown) [Compound 8]	2000 to 5000
O=C(COc1ccccc1)NC1Cc2ccc(S(=O)(=O)Nc3nccs3)cc2C1 (stereo not shown) [Compound 9]	> 5000
O=C(NC1Cc2ccc(S(=O)(=O)Nc3nccs3)cc2C1)c1ccc(C(F)(F)F)cc1 (stereo not shown) [Compound 10]	> 5000
CC(C)(C)c1ccc(OCC(=O)NC2Cc3ccc(S(=O)(=O)Nc4nccs4)cc3C2)cc1 (stereo not shown) [Compound 12]	< 2000
O=C(COc1ccc(F)cc1)NC1Cc2ccc(S(=O)(=O)Nc3nccs3)cc2C1 (stereo not shown) [Compound 13]	2000 to 5000
O=C(NC1Cc2ccc(S(=O)(=O)Nc3nccs3)cc2C1)c1ccccc1F (stereo not shown) [Compound 14]	> 5000
O=C(CCOc1ccccc1)NC1Cc2ccc(S(=O)(=O)Nc3nccs3)cc2C1 (stereo not shown) [Compound 15]	> 5000
O=C(COc1cccc(Cl)c1)NC1Cc2ccc(S(=O)(=O)Nc3nccs3)cc2C1 (stereo not shown) [Compound 16, 2-(3-Chloro-phenoxy)-N-[5-(thiazol-2-ylsulfamoyl)-indan-2-yl]-acetamide]	< 2000
CC(C(=O)NC1Cc2ccc(S(=O)(=O)Nc3nccs3)cc2C1)n1ccc2ccccc21 (stereo not shown) [Compound 17, 2-Indol-1-yl-N-[5-(thiazol-2-ylsulfamoyl)-indan-2-yl]-propionamide]	2000 to 5000
